Patent US5118678A, “Carbamates of rapamycin” (American Home Products Corporation, priority 1991, dated 1992)
Read-outs that look alike come from different tables or passages of the source.

Legend:
[1] = test system: cells from the thymus of normal BALB/c mice (lymphocyte proliferation); experiment: comitogen-induced thymocyte proliferation procedure (LAF); format: cell-based; conditions: Mus musculus; for IC50: read-out: LAF IC50
Description: (§1) Immunosuppressive activity was evaluated in an in vitro standard pharmacological test procedure to measure lymphocyte proliferation (LAF) and in two in vivo standard pharmacological test procedures. The first in vivo procedure was a popliteal lymph node (PLN) test procedure which measured the effect of compounds of this invention on a mixed lymphocyte reaction and the second in vivo procedure evaluated the survival time of a pinch skin graft.
Briefly, cells from the thymus of normal BALB/c mice are cultured for 72 hours with PHA and IL-1 and pulsed with tritiated thymidine during the last six hours. […] Cells are harvested and incorporated radioactivity is determined. Inhibition of lymphoproliferation is assessed as percent change in counts per minute from non-drug treated controls. The results are expressed as an IC50. [formula]

[2] = test system: pinch skin graft from male DBA/2 donors transplanted to male BALB/c recipients; experiment: survival time of pinch skin graft; format: in vivo, DBA/2 donors (mice); conditions: intraperitoneally; mean ± S.D.; untreated grafts typically rejected within 6-7 days
Description: as §1
The second in vivo test procedure is designed to determine the survival time of pinch skin graft from male DBA/2 donors transplanted to male BALB/c recipients. The method is adapted from Billingham R. E. and Medawar P. B., J. Exp. Biol. 28:385-402, (1951). Briefly, a pinch skin graft from the donor is grafted on the dorsum of the recipient as a homograft, and an autograft is used as control in the same region. […] Untreated recipients serve as rejection control. The graft is monitored daily and observations are recorded until the graft becomes dry and forms a blackened scab. This is considered as the rejection day. The mean graft survival time (number of days ±S.D.) of the drug treatment group is compared with the control group.

[3] = test system: popliteal lymph node, mixed lymphocyte reaction; experiment: popliteal lymph node (PLN) test procedure (in vivo mixed lymphocyte reaction); set-up: species or system C3H mice (recipients), BALB/c donors; conditions: for PLN (ratio): p.o. daily Day 0 to Day 4, rapamycin = 1.00
Description: as §1
A mixed lymphocyte reaction (MLR) occurs when lymphoid cells from genetically distinct animals are combined in tissue culture. Each stimulates the other to undergo blast transformation which results in increased DNA synthesis that can be quantified by the incorporation of tritiated thymidine. Since stimulating a MLR is a function of disparity at Major Histocompatibility antigens, an in vivo popliteal lymph node (PLN) test procedure closely correlates to host vs. graft disease. Briefly, irradiated spleen cells from BALB/c donors are injected into the right hind foot pad of recipient C3H mice. The drug is given daily, p.o. from Day 0 to Day 4. On Day 3 and Day 4, tritiated thymidine is given i.p., b.i.d. On Day 5, the hind popliteal lymph nodes are removed and dissolved, and radioactivity counted. The corresponding left PLN serves as the control for the PLN from the injected hind foot. Percent suppression is calculated using the non-drug treated animals as allogenic control. […] Results are expressed by the following ratio: [formula]

[4] = FASEB 1989; Lancet 1978; cited from earlier work
IgE-like antibodies = conditions: R. Martel et al. 1977; cited from earlier work
[5] = test system: experimental allergic encephalomyelitis model, a model for multiple sclerosis; conditions: R. Martel et al. 1977; cited from earlier work
[6] = thymocytes cultured 72 h with PHA and IL-1, tritiated thymidine incorporation, vs non-drug treated controls

Row | SMILES | IC50 [1, 6] [nM] | Skin Graft (mean graft survival time, days + SD) [2] [days] | PLN (ratio) [3] [ratio] | further results
1 | CO[C@H]1C[C@@H]2CC[C@@H](C)[C@@](O)(O2)C(=O)C(=O)N2CCCC[C@H]2C(=O)O[C@H]([C@H](C)C[C@@H]2CC[C@@H](OC(=O)Nc3ccc(F)cc3)[C@H](OC)C2)CC(=O)[C@H](C)/C=C(\C)[C@@H](O)[C@@H](OC)C(=O)[C@H](C)C[C@H](C)/C=C/C=C/C=C/1C [Example 1, Rapamycin 42-ester with (4-fluorophenyl)carbamic acid] | 8.6 | 8.5 ± 1.6 | 0.71 | 
2 | CO[C@H]1C[C@@H]2CC[C@@H](C)[C@@](O)(O2)C(=O)C(=O)N2CCCC[C@H]2C(=O)O[C@H]([C@H](C)C[C@@H]2CC[C@@H](OC(=O)Nc3ccccc3)[C@H](OC)C2)CC(=O)[C@H](C)/C=C(\C)[C@@H](O)[C@@H](OC)C(=O)[C@H](C)C[C@H](C)/C=C/C=C/C=C/1C [Example 2, Rapamycin 42-ester with phenylcarbamic acid] | 3.9 | 8.5 ± 1.2 | 0.47 | 
3 | CO[C@H]1C[C@@H]2CC[C@@H](C)[C@@](O)(O2)C(=O)C(=O)N2CCCC[C@H]2C(=O)O[C@H]([C@H](C)C[C@@H]2CC[C@@H](OC(=O)Nc3ccc(C(F)(F)F)cc3)[C@H](OC)C2)CC(=O)[C@H](C)/C=C(\C)[C@@H](OC(=O)Nc2ccc(C(F)(F)F)cc2)[C@@H](OC)C(=O)[C@H](C)C[C@H](C)/C=C/C=C/C=C/1C [Example 3, Rapamycin-31,42-diester with [4-(trifluoromethyl)phenyl]carbamic acid] | > 1000 |  |  | 
4 | CO[C@H]1C[C@@H]2CC[C@@H](C)[C@@](O)(O2)C(=O)C(=O)N2CCCC[C@H]2C(=O)O[C@H]([C@H](C)C[C@@H]2CC[C@@H](OC(=O)Nc3ccc(C(F)(F)F)cc3)[C@H](OC)C2)CC(=O)[C@H](C)/C=C(\C)[C@@H](O)[C@@H](OC)C(=O)[C@H](C)C[C@H](C)/C=C/C=C/C=C/1C [Example 4, Rapamycin-42-ester with [4-(trifluoromethyl)phenyl]carbamic acid] | 57.9 |  | 0.90 | 
5 | CO[C@H]1C[C@@H]2CC[C@@H](C)[C@@](O)(O2)C(=O)C(=O)N2CCCC[C@H]2C(=O)O[C@H]([C@H](C)C[C@@H]2CC[C@@H](OC(=O)Nc3ccc([N+](=O)[O-])cc3)[C@H](OC)C2)CC(=O)[C@H](C)/C=C(\C)[C@@H](OC(=O)Nc2ccc([N+](=O)[O-])cc2)[C@@H](OC)C(=O)[C@H](C)C[C@H](C)/C=C/C=C/C=C/1C [Example 5, Rapamycin-31,42-diester with (4-nitrophenyl)carbamic acid] |  |  |  | inhibition at 0.1 µM ([1]; read-out: LAF percent inhibition): 3%
6 | CO[C@H]1C[C@@H]2CC[C@@H](C)[C@@](O)(O2)C(=O)C(=O)N2CCCC[C@H]2C(=O)O[C@H]([C@H](C)C[C@@H]2CC[C@@H](OC(=O)Nc3ccc([N+](=O)[O-])cc3)[C@H](OC)C2)CC(=O)[C@H](C)/C=C(\C)[C@@H](O)[C@@H](OC)C(=O)[C@H](C)C[C@H](C)/C=C/C=C/C=C/1C [Example 6, Rapamycin-42-ester with (4-nitrophenyl)carbamic acid] | 10.4 | 8.3 ± 1.0 | 0.25 | 
7 | CO[C@H]1C[C@@H]2CC[C@@H](C)[C@@](O)(O2)C(=O)C(=O)N2CCCC[C@H]2C(=O)O[C@H]([C@H](C)C[C@@H]2CC[C@@H](OC(=O)Nc3ccc(C)cc3)[C@H](OC)C2)CC(=O)[C@H](C)/C=C(\C)[C@@H](O)[C@@H](OC)C(=O)[C@H](C)C[C@H](C)/C=C/C=C/C=C/1C [Example 8, Rapamycin-42-ester with (4-methylphenyl)carbamic acid] | 7.4 | 8.8 ± 1.3 |  | 
8 | CO[C@H]1C[C@@H]2CC[C@@H](C)[C@@](O)(O2)C(=O)C(=O)N2CCCC[C@H]2C(=O)O[C@H]([C@H](C)C[C@@H]2CC[C@@H](OC(=O)Nc3ccc(F)cc3F)[C@H](OC)C2)CC(=O)[C@H](C)/C=C(\C)[C@@H](O)[C@@H](OC)C(=O)[C@H](C)C[C@H](C)/C=C/C=C/C=C/1C [Example 9, Rapamycin-42-ester with (2,4-difluorophenyl)carbamic acid] | 8.7 | 8.0 ± 1.7 | 0.72 | 
9 | CO[C@H]1C[C@@H]2CC[C@@H](C)[C@@](O)(O2)C(=O)C(=O)N2CCCC[C@H]2C(=O)O[C@H]([C@H](C)C[C@@H]2CC[C@@H](OC(=O)Nc3ccc(F)cc3F)[C@H](OC)C2)CC(=O)[C@H](C)/C=C(\C)[C@@H](OC(=O)Nc2ccc(F)cc2F)[C@@H](OC)C(=O)[C@H](C)C[C@H](C)/C=C/C=C/C=C/1C [Example 10, Rapamycin-31,42-diester with (2,4-difluorophenyl)carbamic acid] | > 1000 |  |  | 
10 | CO[C@H]1C[C@@H]2CC[C@@H](C)[C@@](O)(O2)C(=O)C(=O)N2CCCC[C@H]2C(=O)O[C@H]([C@H](C)C[C@@H]2CC[C@@H](OC(=O)Nc3ccccc3)[C@H](OC)C2)CC(=O)[C@H](C)/C=C(\C)[C@@H](OC(=O)Nc2ccccc2)[C@@H](OC)C(=O)[C@H](C)C[C@H](C)/C=C/C=C/C=C/1C [Example 11, Rapamycin-31,42-diester with phenylcarbamic acid] | > 1000 |  |  | 
11 | CO[C@H]1C[C@@H]2CC[C@@H](C)[C@@](O)(O2)C(=O)C(=O)N2CCCC[C@H]2C(=O)O[C@H]([C@H](C)C[C@@H]2CC[C@@H](OC(=O)Nc3ccc(F)cc3)[C@H](OC)C2)CC(=O)[C@H](C)/C=C(\C)[C@@H](OC(=O)Nc2ccc(F)cc2)[C@@H](OC)C(=O)[C@H](C)C[C@H](C)/C=C/C=C/C=C/1C [Example 12, Rapamycin-31,42-diester with (4-fluorophenyl)carbamic acid] | > 1000 |  |  | 
12 | CO[C@H]1C[C@@H]2CC[C@@H](C)[C@@](O)(O2)C(=O)C(=O)N2CCCC[C@H]2C(=O)O[C@H]([C@H](C)C[C@@H]2CC[C@@H](O[Si](C)(C)C(C)(C)C)[C@H](OC)C2)CC(=O)[C@H](C)/C=C(\C)[C@@H](OC(=O)Nc2ccc(F)cc2F)[C@@H](OC)C(=O)[C@H](C)C[C@H](C)/C=C/C=C/C=C/1C [Example 14, Rapamycin-42-tert-butyldimethylsilyl ether-31-ester with (2,4-difluorophenyl)carbamic acid] |  |  |  | IC50 ([1]; 72 h): > 1000 nM
13 | CO[C@H]1C[C@@H]2CC[C@@H](C)[C@@](O)(O2)C(=O)C(=O)N2CCCC[C@H]2C(=O)O[C@H]([C@H](C)C[C@@H]2CC[C@@H](O)[C@H](OC)C2)CC(=O)[C@H](C)/C=C(\C)[C@@H](OC(=O)Nc2ccc(F)cc2F)[C@@H](OC)C(=O)[C@H](C)C[C@H](C)/C=C/C=C/C=C/1C [Example 15, Rapamycin-31-ester with (2,4-difluorophenyl)carbamic acid] | > 1000 |  |  | 
14 | C=CC[C@@H]1/C=C(\C)C[C@H](C)C[C@H](OC)[C@H]2O[C@@](O)(C(=O)C(=O)N3CCCC[C@H]3C(=O)O[C@H](/C(C)=C/[C@@H]3CC[C@@H](O)[C@H](OC)C3)[C@H](C)[C@@H](O)CC1=O)[C@H](C)C[C@@H]2OC [FK-506] |  |  |  | immunosuppressive effects [4]: effective as immunosuppressive agents
15 | CO[C@H]1C[C@@H]2CC[C@@H](C)[C@@](O)(O2)C(=O)C(=O)N2CCCC[C@H]2C(=O)O[C@H]([C@H](C)C[C@@H]2CC[C@@H](O)[C@H](OC)C2)CC(=O)[C@H](C)/C=C(\C)[C@@H](O)[C@@H](OC)C(=O)[C@H](C)C[C@H](C)/C=C/C=C/C=C/1C [Rapamycin] |  | 12.0 ± 1.7 | 1.00 | inhibition of formation of IgE-like antibodies (IgE-like antibodies): effectively inhibited the formation of IgE-like antibodies; IC50 ([1]; 72 h): 3.2 to 9.4 nM; immunosuppressive effects [4]: immunosuppressive effects; percent suppression (PLN) ([3]; 6 mg/kg, p.o., vs non-drug treated animals as allogenic control): 86%; effect in experimental allergic encephalomyelitis model [5]: effective in the experimental allergic encephalomyelitis model
